Test results from patent publication US9661853B2, “Molecules having pesticidal utility, and intermediates, compositions, and processes, related thereto” (Dow AgroSciences LLC, priority 2015, dated 2017).

What was measured:
[1] = system: Cabbage Looper (Trichoplusia ni, TRIPNI); test: Bioassay on Cabbage Looper (CL), 128-well diet tray assay; format: in vivo; settings: 168 h, 50 μg/cm^2 on artificial diet, second instar larvae, 25° C., five to seven days, average of eight wells, read-out: CL % Control (or Mortality) rating
Experimental: (§1) Bioassays on Beet Armyworm (Spodoptera exigua, LAPHEG) (“BAW”) and Cabbage Looper (Trichoplusia ni, TRIPNI) (“CL”)
(§2) Certain molecules disclosed in this document were tested against BAW and CL using procedures described in the following examples. In the reporting of the results, the “BAW & CL Rating Table” was used (See Table Section).
Bioassays on CL were conducted using a 128-well diet tray assay. One to five second instar CL larvae were placed in each well (3 mL) of the diet tray that had been previously filled with 1 mL of artificial diet to which 50 μg/cm^2 of the test molecule (dissolved in 50 μL of 90:10 acetone-water mixture) had been applied (to each of eight wells) and then allowed to dry. Trays were covered with a clear self-adhesive cover, vented to allow gas exchange, and held at 25° C., 14:10 light-dark for five to seven days. Percent mortality was recorded for the larvae in each well; activity in the eight wells was then averaged. The results are indicated in the table entitled “Table ABC: Biological Results” (See Table Section).

[2] = system: Beet Armyworm (Spodoptera exigua, LAPHEG); test: Bioassay on Beet Armyworm (BAW), 128-well diet tray assay; format: in vivo; settings: 168 h, 50 μg/cm^2 on artificial diet, second instar larvae, 25° C., five to seven days, average of eight wells, read-out: BAW % Control (or Mortality) rating
Experimental: as §1, §2
Bioassays on BAW were conducted using a 128-well diet tray assay. One to five second instar BAW larvae were placed in each well (3 mL) of the diet tray that had been previously filled with 1 mL of artificial diet to which 50 μg/cm^2 of the test molecule (dissolved in 50 μL of 90:10 acetone-water mixture) had been applied (to each of eight wells) and then allowed to dry. Trays were covered with a clear self-adhesive cover, vented to allow gas exchange, and held at 25° C., 14:10 light-dark for five to seven days. Percent mortality was recorded for the larvae in each well; activity in the eight wells was then averaged. The results are indicated in the table entitled “Table ABC: Biological Results” (See Table Section).

| SMILES | mortality at 50 µg/cm2 [1] | mortality at 50 µg/cm2 [2] |
| --- | --- | --- |
| COCc1ccc(C)cc1N1C(=O)CS/C1=N\C(=O)Nc1ccc(CNc2ncn(-c3ccc(OC(F)(F)F)cc3)n2)c(Cl)c1 [F9, (Z)-1-(3-Chloro-4-(((1-(4-(trifluoromethoxy)phenyl)-1H-1,2,4-triazol-3-yl)amino)methyl)phenyl)-3-(3-(2-(methoxymethyl)-5-methylphenyl)-4-oxothiazolidin-2-ylidene)urea] | 50 to 100% | 50 to 100% |
| Cc1ccc(C(C)C)c(N2C(=O)CS/C2=N\C(=O)Nc2ccc(NCc3ncn(-c4ccc(OC(F)(F)F)cc4)n3)cc2Cl)c1 [F40, (Z)-1-(2-Chloro-4-(((1-(4-(trifluoromethoxy)phenyl)-1H-1,2,4-triazol-3-yl)methyl)amino)phenyl)-3-(3-(2-isopropyl-5-methylphenyl)-4-oxothiazolidin-2-ylidene)urea] | 50 to 100% | 50 to 100% |
| CCCc1ccc(C)cc1N1C(=O)CS/C1=N\C(=O)Nc1ccc(NCc2ncn(-c3ccc(OC(F)(F)F)cc3)n2)c(Cl)c1 [F44, (Z)-1-(3-Chloro-4-(((1-(4-(trifluoromethoxy)phenyl)-1H-1,2,4-triazol-3-yl)methyl)amino)phenyl)-3-(3-(5-methyl-2-propylphenyl)-4-oxothiazolidin-2-ylidene)urea] | 50 to 100% | 50 to 100% |
| Cc1ccc(C(C)C)c(N2C(=O)CS/C2=N\C(=O)Nc2ccc(N(C)C(=O)c3ncn(-c4ccc(OC(F)(F)F)cc4)n3)cc2)c1 [F27, (Z)—N-(4-(3-(3-(2-Isopropyl-5-methylphenyl)-4-oxothiazolidin-2-ylidene)ureido)phenyl)-N-methyl-1-(4-(trifluoromethoxy)phenyl)-1H-1,2,4-triazole-3-carboxamide] | 50 to 100% | 50 to 100% |
| Cc1ccc(C(C)C)c(N2C(=O)CS/C2=N\C(=O)Nc2ccc(NCc3ncn(-c4ccc(OC(F)(F)F)cc4)n3)cn2)c1 [F47, (Z)-1-(3-(2-isopropyl-5-methylphenyl)-4-oxothiazolidin-2-ylidene)-3-(5-(((1-(4-(trifluoromethoxy)phenyl)-1H-1,2,4-triazol-3-yl)methyl)amino)pyridin-2-yl)urea] | 50 to 100% | 50 to 100% |
| CCCc1ccc(C)cc1N1C(=O)CS/C1=N\C(=O)Nc1ccc(NCc2ncn(-c3ccc(OC(F)(F)F)cc3)n2)cc1F [F32, (Z)-1-(2-Fluoro-4-(((1-(4-(trifluoromethoxy)phenyl)-1H-1,2,4-triazol-3-yl)methyl)amino)phenyl)-3-(3-(5-methyl-2-propylphenyl)-4-oxothiazolidin-2-ylidene)urea] | 50 to 100% | 50 to 100% |
| CCCc1ccc(C)cc1N1C(=O)CS/C1=N\C(=O)Nc1ccc(CN(C)c2ncn(-c3ccc(OC(F)(F)F)cc3)n2)cc1 [F23, (Z)-1-(4-((Methyl(1-(4-(trifluoromethoxy)phenyl)-1H-1,2,4-triazol-3-yl)amino)methyl)phenyl)-3-(3-(5-methyl-2-propylphenyl)-4-oxothiazolidin-2-ylidene)urea] | 50 to 100% | 50 to 100% |
| Cc1ccc(C(C)C)c(N2C(=O)CS/C2=N\C(=O)Nc2ccc(CNc3ncn(-c4ccc(OC(F)(F)F)cc4)n3)cn2)c1 [F11, (Z)-1-(3-(2-Isopropyl-5-methylphenyl)-4-oxothiazolidin-2-ylidene)-3-(5-(((1-(4-(trifluoromethoxy)phenyl)-1H-1,2,4-triazol-3-yl)amino)methyl)pyridin-2-yl)urea] | 50 to 100% | 50 to 100% |
| Cc1ccc(C(C)C)c(N2C(=O)CS/C2=N\C(=O)Nc2ccc(NCc3ncn(-c4ccc(OC(F)(F)F)cc4)n3)cc2)c1 [F28, (Z)-1-(3-(2-isopropyl-5-methylphenyl)-4-oxothiazolidin-2-ylidene)-3-(4-(((1-(4-(trifluoromethoxy)phenyl)-1H-1,2,4-triazol-3-yl)methyl)amino)phenyl)urea] | 50 to 100% | 50 to 100% |
| COCc1ccc(C)cc1N1C(=O)CS/C1=N\C(=O)Nc1ccc(CN(C)c2ncn(-c3ccc(OC(F)(F)F)cc3)n2)cn1 [F14, (Z)-1-(3-(2-(Methoxymethyl)-5-methylphenyl)-4-oxothiazolidin-2-ylidene)-3-(5-((methyl(1-(4-(trifluoromethoxy)phenyl)-1H-1,2,4-triazol-3-yl)amino)methyl)pyridin-2-yl)urea] | 50 to 100% | 50 to 100% |
| CCCc1ccc(C)cc1N1C(=O)CS/C1=N\C(=O)Nc1ccc(NCc2ncn(-c3ccc(OC(F)(F)F)cc3)n2)c(OC)c1 [F38, (Z)-1-(3-Methoxy-4-(((1-(4-(trifluoromethoxy)phenyl)-1H-1,2,4-triazol-3-yl)methyl)amino)phenyl)-3-(3-(5-methyl-2-propylphenyl)-4-oxothiazolidin-2-ylidene)urea] | 50 to 100% | 50 to 100% |
| Cc1ccc(C(C)C)c(N2C(=O)CS/C2=N\C(=O)Nc2ccc(C(=O)N(C)c3ncn(-c4ccc(OC(F)(F)F)cc4)n3)cc2)c1 [F25, (Z)-4-(3-(3-(2-isopropyl-5-methylphenyl)-4-oxothiazolidin-2-ylidene)ureido)-N-methyl-N-(1-(4-(trifluoromethoxy)phenyl)-1H-1,2,4-triazol-3-yl)benzamide] | 50 to 100% | 50 to 100% |
| COCc1ccc(C)cc1N1C(=O)CS/C1=N\C(=O)Nc1ccc(NCc2ncn(-c3ccc(OC(F)(F)F)cc3)n2)cc1 [F30, (Z)-1-(3-(2-(Methoxymethyl)-5-methylphenyl)-4-oxothiazolidin-2-ylidene)-3-(4-(((1-(4-(trifluoromethoxy)phenyl)-1H-1,2,4-triazol-3-yl)methyl)amino)phenyl)urea] | 50 to 100% | 50 to 100% |
| Cc1ccc(C(C)C)c(N2C(=O)CS/C2=N\C(=O)Nc2ccc(NC(=O)c3ncn(-c4ccc(OC(F)(F)F)cc4)n3)cc2)c1 [F26, (Z)—N-(4-(3-(3-(2-Isopropyl-5-methylphenyl)-4-oxothiazolidin-2-ylidene)ureido)phenyl)-1-(4-(trifluoromethoxy)phenyl)-1H-1,2,4-triazole-3-carboxamide] | 50 to 100% | 50 to 100% |
| CCCc1ccc(C)cc1N1C(=O)CS/C1=N\C(=O)Nc1ccc(CNc2ncn(-c3ccc(OC(F)(F)F)cc3)n2)c(Cl)c1 [F8, (Z)-1-(3-Chloro-4-(((1-(4-(trifluoromethoxy)phenyl)-1H-1,2,4-triazol-3-yl)amino)methyl)phenyl)-3-(3-(5-methyl-2-propylphenyl)-4-oxothiazolidin-2-ylidene)urea] | 50 to 100% | 50 to 100% |
| Cc1ccc(C(C)C)c(N2C(=O)CS/C2=N\C(=O)Nc2ccc(NCc3ncn(-c4ccc(OC(F)(F)F)cc4)n3)nc2)c1 [F46, (Z)-1-(3-(2-isopropyl-5-methylphenyl)-4-oxothiazolidin-2-ylidene)-3-(6-(((1-(4-(trifluoromethoxy)phenyl)-1H-1,2,4-triazol-3-yl)methyl)amino)pyridin-3-yl)urea] | 50 to 100% | 50 to 100% |
| COCc1ccc(C)cc1N1C(=O)CS/C1=N\C(=O)Nc1ccc(CNc2ncn(-c3ccc(OC(F)(F)F)cc3)n2)cc1 [F4, (Z)-1-(3-(2-(Methoxymethyl)-5-methylphenyl)-4-oxothiazolidin-2-ylidene)-3-(4-(((1-(4-(trifluoromethoxy)phenyl)-1H-1,2,4-triazol-3-yl)amino)methyl)phenyl)urea] | 50 to 100% | 50 to 100% |
| COCc1ccc(C)cc1N1C(=O)CS/C1=N\C(=O)Nc1ccc(CNc2ncn(-c3ccc(OC(F)(F)F)cc3)n2)cn1 [F13, (Z)-1-(3-(2-(Methoxymethyl)-5-methylphenyl)-4-oxothiazolidin-2-ylidene)-3-(5-(((1-(4-(trifluoromethoxy)phenyl)-1H-1,2,4-triazol-3-yl)amino)methyl)pyridin-2-yl)urea] | 50 to 100% | 50 to 100% |
| Cc1ccc(C(C)C)c(N2C(=O)CS/C2=N\C(=O)Nc2ccc(NCc3ncn(-c4ccc(OC(F)(F)F)cc4)n3)c(Cl)c2)c1 [F43, (Z)-1-(3-Chloro-4-(((1-(4-(trifluoromethoxy)phenyl)-1H-1,2,4-triazol-3-yl)methyl)amino)phenyl)-3-(3-(2-isopropyl-5-methylphenyl)-4-oxothiazolidin-2-ylidene)urea] | 50 to 100% | 50 to 100% |
| COc1cc(NC(=O)/N=C2\SCC(=O)N2c2cc(C)ccc2C(C)C)ccc1NCc1ncn(-c2ccc(OC(F)(F)F)cc2)n1 [F37, (Z)-1-(3-(2-Isopropyl-5-methylphenyl)-4-oxothiazolidin-2-ylidene)-3-(3-methoxy-4-(((1-(4-(trifluoromethoxy)phenyl)-1H-1,2,4-triazol-3-yl)methyl)amino)phenyl)urea] | 50 to 100% | 50 to 100% |
